In US7407988B2, “Carbamic acid compounds comprising a sulfonamide linkage as HDAC inhibitors” (Topotarget UK Limited, priority 2000, dated 2008):
pIC50: −log10 of the molar value. Like-named read-outs stand apart in the source and are kept apart here.

Assays:
[1] = tested on: NHEK-Ad primary human adult keratinocyte line; experiment: Secondary assay: cell proliferation WST-1, NHEK-Ad; format: cell-based; conditions: Homo sapiens, Keratinocyte, 48 h, read-out: Cell Proliferation Inhibition WST-1 (IC50 unless otherwise specified) NHEK-AD
HDAC (HeLa cell extract) = experiment: Primary assay: deacetylase activity, HeLa cell extract as source of HDAC; format: biochemical, human
From the text: (§1) Briefly, this assay relies on the release of radioactive acetate from a radioactively labelled histone fragment by the action of HDAC enzyme. Test compounds, which inhibit HDAC, reduce the yield of radioactive acetate. Signal (e.g., scintillation counts) measured in the presence and absence of a test compound provide an indication of that compound's ability to inhibit HDAC activity. Decreased activity indicates increased inhibition by the test compound.
(§2) The histone fragment was an N-terminal sequence from histone H4, and it was labelled with radioactively labelled acetyl groups using tritiated acetylcoenzyme A (coA) in conjunction with an enzyme which is the histone acetyltransferase domain of the transcriptional coactivator p300. […] The acetylated peptide was then separated from free acetyl coA by size exclusion chromatography on Sephadex G-15 (Sigma G-15-120), using distilled H2O as the mobile phase.
(§3) After purification of the radiolabelled histone fragment, it was incubated with a source of HDAC (e.g., an extract of HeLa cells (a rich source of HDAC), recombinantly produced HDAC1 or HDAC2) and any released acetate was extracted into an organic phase and quantitatively determined using scintillation counting. By including a test compound with the source of HDAC, that compound's ability to inhibit the HDAC was determined.
Two cell volumes of extraction buffer were used, and particulate material was centrifuged out (20800 g, 4° C., 10 min). The supernatant extract having deacetylase activity was aliquotted and frozen for storage.
(§4) A source of HDAC (e.g., 2 μL of crude HeLa extract, 5 μL of HDAC1 or HDAC2; in elution buffer, as above) was incubated with 3 μL of radioactively labelled peptide along with appropriate dilutions of candidate compounds (1.5 μL) in a total volume of 150 μL of buffer (20 mM Tris pH 7.4, 10% glycerol). The reaction was carried out at 37° C. for one hour, after which the reaction was stopped by adding 20 μL of 1 M HCl/0.4 M sodium acetate. […] Radioactivity was measured using a Tri-Carb 21 00TR Liquid Scintillation Analyzer (Packard).
(§5) Percent activity (% activity) for each test compound was calculated as: % activity={(S^C−B)/(S°−B)}×100 wherein S^C denotes signal measured in the presence of enzyme and the compound being tested, S° denotes signal measured in the presence of enzyme but in the absence of the compound being tested, and B denotes the background signal measured in the absence of both enzyme and compound being tested.

[2] = tested on: K11 HPV E7 transformed human keratinocyte line; experiment: Secondary assay: cell proliferation WST-1, K11; format: cell-based; conditions: Homo sapiens, Keratinocyte, Table 2, 48 h, read-out: Cell Proliferation Inhibition WST-1 (IC50 unless otherwise specified) K11
JURKAT human T-cell line = experiment: Secondary assay: cell proliferation WST-1, Jurkat; format: cell-based; conditions: Homo sapiens, Table 2, 48 h, read-out: Cell Proliferation Inhibition WST-1 (IC50 unless otherwise specified) Jurkat
HeLa cells = experiment: Secondary assay: cell proliferation WST-1, HeLa; format: cell-based; conditions: Homo sapiens, read-out: Cell Proliferation Inhibition WST-1 (IC50 unless otherwise specified) HeLa
human HDAC1 = molecular target: T1, human HDAC1 (Homo sapiens, UniProt Q13547); experiment: Primary assay: deacetylase activity, recombinantly produced HDAC1; format: biochemical; conditions: Table 1; recombinant HDAC1; read-out: HDAC Inhibition (IC50 unless otherwise specified) HDAC1
T1 construct: Full length human HDAC1 was cloned by PCR; Flag (C); implied by Ni-NTA purification) (N); made in house; host or cells: SF9 insect cells (baculovirus)
T1 sequence (Q13547 whole entry): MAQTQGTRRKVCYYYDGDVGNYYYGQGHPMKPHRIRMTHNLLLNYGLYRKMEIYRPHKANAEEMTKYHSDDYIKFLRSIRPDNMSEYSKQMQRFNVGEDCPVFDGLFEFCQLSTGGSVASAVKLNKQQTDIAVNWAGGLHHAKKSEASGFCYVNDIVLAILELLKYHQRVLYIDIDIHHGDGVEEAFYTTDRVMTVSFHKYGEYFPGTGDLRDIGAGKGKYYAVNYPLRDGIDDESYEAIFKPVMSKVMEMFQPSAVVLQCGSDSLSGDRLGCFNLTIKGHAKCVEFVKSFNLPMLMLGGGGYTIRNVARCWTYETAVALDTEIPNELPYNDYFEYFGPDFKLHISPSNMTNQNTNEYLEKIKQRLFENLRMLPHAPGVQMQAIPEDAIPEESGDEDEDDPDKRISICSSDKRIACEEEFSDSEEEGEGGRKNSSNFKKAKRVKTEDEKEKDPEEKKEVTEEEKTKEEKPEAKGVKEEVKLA
From the text: as §1, §2, §3
Full length human HDAC1 was cloned by PCR using a λgt11 Jurkat cDNA library (Clontech-HL5012b). […] A second PCR was carried out in order to amplify a fragment containing the HDAC1 sequence fused to the Flag tag.
Amplification of recombinant viruses was performed according to the Pharmingen Instruction Manual.
For protein production, 2×10^7 cells were infected with the appropriate recombinant virus for 3 days. Cells were then harvested and spun at 3,000 rpm for 5 minutes. They were then washed twice in PBS and resuspended in 2 pellet volumes of lysis buffer (25 mM HEPES pH 7.9, 0.1 mM EDTA, 400 mM KCl, 10% glycerol, 0.1% NP-40, 1 mM AEBSF). […]
as §4, with “glycerol).” for “glycerol). The reaction was carried out at 37° C. for one hour, after which the reaction was stopped by adding 20 μL of 1 M HCl/0.4 M sodium acetate.”
as §5

human HDAC2 = molecular target: T2, human HDAC2 (Homo sapiens, UniProt Q92769); experiment: Primary assay: deacetylase activity, recombinantly produced HDAC2; format: biochemical; conditions: Table 1; recombinant HDAC2; read-out: HDAC Inhibition (IC50 unless otherwise specified) HDAC2
T2 construct: Full length human HDAC2 was subcloned; Flag (carried over from the HDAC2-pFlag-CTC construct; inferred by analogy to HDAC1) (C); implied by Ni-NTA purification) (N); made in house; host or cells: SF9 insect cells (baculovirus)
T2 sequence (Q92769 whole entry): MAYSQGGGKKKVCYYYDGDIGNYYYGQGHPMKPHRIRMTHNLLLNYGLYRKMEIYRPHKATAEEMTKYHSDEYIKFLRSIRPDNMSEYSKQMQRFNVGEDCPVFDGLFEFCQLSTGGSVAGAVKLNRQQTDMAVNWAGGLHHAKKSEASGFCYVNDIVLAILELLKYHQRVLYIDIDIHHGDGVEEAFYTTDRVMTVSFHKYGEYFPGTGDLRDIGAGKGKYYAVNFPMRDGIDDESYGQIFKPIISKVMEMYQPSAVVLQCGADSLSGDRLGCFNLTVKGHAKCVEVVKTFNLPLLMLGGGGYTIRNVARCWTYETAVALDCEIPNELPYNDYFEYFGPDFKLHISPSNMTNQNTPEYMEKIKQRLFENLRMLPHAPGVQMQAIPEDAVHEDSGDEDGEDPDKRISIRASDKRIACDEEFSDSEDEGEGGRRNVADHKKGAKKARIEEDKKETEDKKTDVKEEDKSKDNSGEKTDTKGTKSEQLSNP

[3] = Table 1, read-out: HDAC Inhibition (IC50 unless otherwise specified) HeLa
[4] = comparative tables, HDAC inhibition, read-out: HeLa IC50

## O=C(/C=C/C#Cc1cccc(NS(=O)(=O)c2ccccc2)c1)NO [Oxamflatin, (2E)-5-[3-[(phenylsulfonyl)amino]phenyl]-pent-2-en-4-ynohydroxamic acid, reference compound]
[1]
  pIC50: 5.45
HDAC (HeLa cell extract); [3]
  pIC50: 7.42
HDAC (HeLa cell extract); [4]
  pIC50: 7.42
[2]
  pIC50: 5.34
JURKAT human T-cell line
  pIC50: 6.59
HeLa cells; 48 h
  pIC50: 5.96

## Cc1ccc(S(=O)(=O)Nc2cccc(/C=C/C(=O)NO)c2)cc1 [PX089342, N-Hydroxy-3-[3(toluene-4-sulfonylamino)-phenyl]-acrylamide]
HDAC (HeLa cell extract); [3]
  pIC50: 6.90
HDAC (HeLa cell extract); [4]
  pIC50: 6.90
Human HDAC1
  pIC50: 7.30
other
  melting point: 147 °C
HeLa cells; Table 2, 48 h
  pIC50: 5.39

## O=C(/C=C/c1cccc(NS(=O)(=O)c2ccccc2)c1)NO [PX089344, 3-(3-Benzenesulfonylamino-phenyl)N-hydroxy-acrylamide]
HDAC (HeLa cell extract); [3]
  pIC50: 7.05
HDAC (HeLa cell extract); [4]
  pIC50: 7.05
Human HDAC2
  pIC50: 6.76
other
  melting point: 172 °C
HeLa cells; Table 2, 48 h
  pIC50: 5.05

## CN(c1ccccc1)S(=O)(=O)c1cccc(/C=C/C(=O)NO)c1 [PX105685]
Human HDAC2
  pIC50: 6.22
HeLa cells; 48 h
  pIC50: 5.14

## COc1ccc(NS(=O)(=O)c2cccc(/C=C/C(=O)NO)c2)cc1 [PX105844]
HDAC (HeLa cell extract); [3]
  pIC50: 7.82
Human HDAC1
  pIC50: 7.54
other
  melting point: 186 °C
HeLa cells; Table 2, 48 h
  pIC50: 6.40

## Cc1ccc(NS(=O)(=O)c2cccc(/C=C/C(=O)NO)c2)cc1 [PX106508]
HDAC (HeLa cell extract); [3]
  pIC50: 7.51
HDAC (HeLa cell extract); [4]
  pIC50: 7.51
Human HDAC1
  pIC50: 7.05
[2]
  pIC50: 5.46
other
  melting point: 200 °C
JURKAT human T-cell line
  pIC50: 6.52
HeLa cells; Table 2, 48 h
  pIC50: 5.80

## O=C(/C=C/c1cccc(S(=O)(=O)NCCc2ccccc2)c1)NO [PX106512]
HDAC (HeLa cell extract); [3]
  pIC50: 7.66
HDAC (HeLa cell extract); [4]
  pIC50: 7.66
Human HDAC1
  pIC50: 6.34
[2]
  pIC50: 5.62
other
  melting point: 114 °C
JURKAT human T-cell line
  pIC50: 6.68
HeLa cells; Table 2, 48 h
  pIC50: 5.72

## O=C(/C=C/c1cccc(S(=O)(=O)Nc2cccc3ccccc23)c1)NO [PX117228, N-Hydroxy-3-[3-(naphthalen-1-ylsulfamoyl)-phenyl]-acrylamide]
[1]
  pIC50: 5.92
HDAC (HeLa cell extract); [3]
  pIC50: 8.15
HDAC (HeLa cell extract); [4]
  pIC50: 8.15
[2]
  pIC50: 5.85
other
  melting point: 180 °C
JURKAT human T-cell line
  pIC50: 6.82
HeLa cells; 48 h
  pIC50: 6.10

## O=C(/C=C/c1cccc(S(=O)(=O)Nc2ccc3ccccc3c2)c1)NO [PX117445, N-Hydroxy-3-[3-(naphthalen-2-ylsulfamoyl)-phenyl]-acrylamide]
[1]; Table 2, NHEK-AD
  pIC50: 6.12
HDAC (HeLa cell extract); [3]
  pIC50: 8.70
[2]
  pIC50: 5.92
other
  melting point: 164 °C
JURKAT human T-cell line
  pIC50: 6.89
HeLa cells; Table 2, 48 h
  pIC50: 5.96
